In ChEMBL document CHEMBL5241070, “Overview of all-trans-retinoic acid (ATRA) and its analogues: Structures, activities, and mechanisms in acute promyelocytic leukaemia” (Eur J Med Chem, 2021):
≈ marks a conversion by molar mass, not a printed value.

Key:
Staphylococcus aureus = test: Antibacterial activity against methicillin-resistant Staphylococcus aureus assessed as bacterial growth inhibition; format: functional
MDA-MB-231 = test: Antiproliferative activity against human MDA-MB-231 cells assessed as inhibition of cell growth; format: functional, cell-based
A2780 = test: Antiproliferative activity against human A2780 cells assessed as inhibition of cell growth measured after 72 hrs by SRB assay; format: functional, cell-based; conditions: A2780, 72 h
Y79 = test: Antiproliferative activity against human Y79 cells assessed as inhibition of cell growth measured after 72 hrs by MTT assay; format: functional
NB-4 = test: Antiproliferative activity against human NB-4 cells assessed as inhibition of cell growth measured after 96 hrs by MTT assay; format: functional
A-375 = test: Antiproliferative activity against human A-375 cells assessed as inhibition of cell growth measured after 24 hrs by WST-8 assay; format: functional
[1] = Antiproliferative activity against human A2774 cells assessed as inhibition of cell growth measured after 72 hrs by XTT assay; format: functional
[2] = Antiproliferative activity against human UM-SCC-38 cells assessed as inhibition of cell growth; format: functional, cell-based
[3] = Antiproliferative activity against human U87MG Human EGFR vIII cells assessed as inhibition of cell growth measured after 24 hrs by MTT assay; format: functional
HL-60 = test: Antiproliferative activity against human HL-60 cells assessed as cell growth inhibition measured after 72 hrs by trypan blue staining based assay; format: functional
PC-3 = test: Antiproliferative activity against human PC-3 cells assessed as inhibition of cell growth measured after 24 hrs by MTT assay; format: functional
SCL-1 = test: Induction of apoptosis in human SCL-1 cells by flow cytometry assay; format: functional; conditions: read-out: MEC
MCF7 = test: Antiproliferative activity in human MCF7 cells assessed as cell growth inhibition measured after 72 hrs by cell counting assay; format: functional
MOLM-13 = test: Antiproliferative activity against human MOLM-13 cells assessed as inhibition of cell growth measured after 96 hrs by WST-8 assay; format: functional
ME-180 [4] = test: Antiproliferative activity against human ME-180 cells assessed as inhibition of cell growth; format: functional
HT-29 = test: Antiproliferative activity against human HT-29 cells assessed as inhibition of cell growth measured after 48 hrs by MTT assay; format: functional
ME-180 [5] = test: Antiproliferative activity against human ME-180 cells assessed as inhibition of cell growth by [3H]-thymidine incorporation based liquid scintillation counter analysis; format: functional
ME-180 [6] = test: Antiproliferative activity against human ME-180 ells assessed as inhibition of cell growth; format: functional, cell-based

**Q.** For `O=C(O)/C=C/c1ccc(-c2ccc(O)c(C34CC5CC(CC(C5)C3)C4)c2)cc1` [ADAROTENE], which MIC (Staphylococcus aureus) is on record?
**A.** Its MIC is 1 µg/mL (≈ 2.67 µM).

**Q.** With `CCCC(=O)OCc1ccc(OC(=O)/C=C(C)/C=C/C=C(C)/C=C/C2=C(C)CCCC2(C)C)cc1` as the compound, how does the GI50 (MDA-MB-231) read?
**A.** Its GI50 is 10 nM.

**Q.** Which IC50 (A2780) does the source give for `CC1=C(/C=C/C(C)=C/C=C/C(C)=C/C(=O)Nc2ccc(O)cc2)C(C)(C)CC/C1=N\OCC(=O)O` here?
**A.** The IC50 was 970 nM.

**Q.** For `CC1=C(/C=C/C(C)=C/C=C/C(C)=C/C(=O)O)C(C)(C)CCC1` [TRETINOIN], which MCC (Y79) is on record?
**A.** The MCC was 2000 nM.

**Q.** And the CC50 (NB-4)?
**A.** Its CC50 is 1500 nM.

**Q.** What about the MCC (A-375) of the same compound?
**A.** The MCC was over 100 µM.

**Q.** What about the CC50 [1] of the same compound?
**A.** The CC50 was 82 nM.

**Q.** And the IC50 [2]?
**A.** The IC50 was 5000 nM.

**Q.** What about the MCC [3] of the same compound?
**A.** The MCC was 40 µM.

**Q.** And the CC50 (HL-60)?
**A.** Its CC50 is 23 nM.

**Q.** What about the CC50 (PC-3) of the same compound?
**A.** The CC50 was 12700 nM.

**Q.** What about the minimal effective concentration (SCL-1) of the same compound?
**A.** Its minimal effective concentration is at most 10 µM.

**Q.** And the CC50 (MCF7)?
**A.** The CC50 was 20 nM.

**Q.** And the CC50 (MOLM-13)?
**A.** The CC50 was 1240 nM.

**Q.** And the CC50 (ME-180 [4])?
**A.** The CC50 was 80 nM.

**Q.** And the CC50 (HT-29)?
**A.** Its CC50 is 4300 nM.

**Q.** Which IC50 (ME-180 [5]) does the source give for `CC(/C=C/C=C(\C)c1cc(C(C)(C)C)cc(C(C)(C)C)c1)=C\C(=O)O` here?
**A.** Its IC50 is 1 nM.

**Q.** For `CC1=C(/C=C/C(C)=C/C=C/C(C)=C/C(=O)Nc2ccc(F)cc2)C(C)(C)CCC1n1ccnc1` (stereo unspecified), which IC50 (MDA-MB-231) is on record?
**A.** Its IC50 is 890 nM.

**Q.** With `O=C(O)c1ccc2cc(-c3ccc(O)c(C45CC6CC(CC(C6)C4)C5)c3)ccc2c1` [O-DEMETHYLATED ADAPALENE] as the compound, how does the MIC (Staphylococcus aureus) read?
**A.** Its MIC is 1 µg/mL (≈ 2.51 µM).

**Q.** For `C/C(=C/C=C/C(C)=C/C(=O)O)c1cc(C(C)(C)C)cc(C(C)(C)C)c1`, which IC50 (ME-180 [6]) is on record?
**A.** The IC50 was 20 nM.

**Q.** With `O=C(O)c1ccc(-c2ccc3cc(O)c(C45CC6CC(CC(C6)C4)C5)cc3c2)cc1` as the compound, how does the MIC (Staphylococcus aureus) read?
**A.** Its MIC is 1 µg/mL (≈ 2.51 µM).
